Reference: publication PMC3066543, “Procyanidins are potent inhibitors of LOX-1: a new player in the French Paradox” (Proceedings of the Japan Academy. Series B, Physical and …, 2011)

Tests used:
[1] = molecular target: T1, human LOX-1 (Homo sapiens, UniProt P78380); experiment: DiI-oxLDL binding to LOX-1-CHO cells (4 ℃, 45 min); format: cell-based
T1 construct: expressed in transfected cells; host or cells: CHO-K1 (LOX-1-CHO), doxycycline-induced
Experimental: Tetracycline-inducible human LOX-1 (tagged with V5-6×His at C-terminus) expressing CHO-K1 (LOX-1-CHO) cells were maintained as previously described.[8]) The cells were seeded in 96-well plate at 10^4 cells/well in the presence of doxycycline (1 µg/mL) (Calbiochem, La Jolla, CA, USA) and were incubated in Ham’s F-12 medium containing 10% FBS at 37 ℃ for 24 h. After being washed with the medium without FBS, the cells were treated with foodstuff extracts or an anti-LOX-1 antibody at the final concentration of 10 µg/mL for 1 h. […] After washing, the cells were fixed with 10% formalin, and were stained with 4′,6-diamidino-2-phenylindole (DAPI) (Sigma, St. Louis, MO, USA). The binding of DiI-oxLDL to LOX-1-CHO cells were determined similarly to the uptake assay, except that the incubation of DiI-oxLDL was performed at 4 ℃ for 45 min. The samples were subjected to fluorescence microscopic analysis (Axiovert 200M, Zeiss, Oberkochen, Germany) or quantitative fluorescence analysis using the IN Cell analyzer system (GE Healthcare, Fairfield, CT, USA). Cell-associated DiI-oxLDL was determined as a ratio of DiI-oxLDL fluorescence intensity per cell in the presence of foodstuff extracts to that in the absence of extracts. All experiments were conducted in more than triplicates. For the determination of fluorescence quenching by procyanidins, the fluorescence was also measured before washing out unbound DiI-oxLDL (Spectramax, Molecular Devices, Sunnyvale, CA, USA). The final concentration of DMSO was less than 0.1% of total volume.

[2] = Plasma concentrations of procyanidin B2 and C1 in rats given OPC; format: in vivo; settings: male, stroke-prone spontaneously hypertensive (SHR-SP), rat, po, 0.5 % (w/v) OPC in drinking saline, rats given 0.5% OPC orally in drinking saline for two days, sampled 7:00–8:00
Experimental: All protocols were approved by the Institutional Animal Care and Use Committee of the National Cerebral and Cardiovascular Center. Animals were individually housed at 23 ± 2 ℃ with 12 h light-dark cycles (7:00–19:00 light-on). Eight-week-old male stroke-prone spontaneously hypertensive rats (SHR-SP) (CLEA Japan, Tokyo, Japan) were divided into two groups (n = 8 each) with similar blood pressure, heart rates and body weights (tail cuff and pulse transducer system, BP-98A, Softron, Tokyo, Japan). They were given high fat diet without cholic acid or vitamin E (CLEA Japan, Tokyo, Japan) and physiological saline as drinking water for 2 weeks. Half of the rats received physiological saline containing 0.5%(w/v) oligomeric procyanidins (OPC) with various chain lengths purified from apples. At the end of the study, the rats were euthanized with isoflurane inhalation and blood was collected from vena cava between 11:00–14:00. The rats were perfused systemically with physiological saline for Oil Red O staining. Total cholesterol, high-density lipoprotein (HDL) cholesterol, triglyceride, and thiobarbituric acid reactive substance (TBARS) were determined enzymatically using commercially available kits (Wako Pure Chemical Industries, Osaka, Japan; Zeptometrix corporation, Buffalo, NY, USA). […]

| SMILES | IC50 ([1]; DiI-oxLDL 10 µg/mL) [nM] | concentration at 2 days [2] [ng/mL] | fluorescence of DiI-oxLDL in LOX-1-CHO cells (binding, microscopy) ([1]; 300 ng/mL, DiI-oxLDL 10 µg/mL, Fig. 4A) | IC50 ([1]; DiI-oxLDL 1 µg/mL, data not shown) [nM] | IC50 ([1]; DiI-oxLDL 3 µg/mL, data not shown) [nM] |
| --- | --- | --- | --- | --- | --- |
| Oc1cc(O)c2c(c1)O[C@H](c1ccc(O)c(O)c1)[C@H](O)[C@H]2c1c(O)cc(O)c2c1O[C@H](c1ccc(O)c(O)c1)[C@H](O)C2 [procyanidin B2, epicatechin(4β-8)epicatechin] | – | 7.9 ± 1.8 | – | – | – |
| Oc1cc(O)c2c(c1)OC(c1ccc(O)c(O)c1)C(O)C2c1c(O)cc2c(c1O)C(c1c(O)cc(O)c3c1OC(c1ccc(O)c(O)c1)C(O)C3)C(O)C(c1ccc(O)c(O)c1)O2 (stereo not drawn) [epicatechin(4β-6)epicatechin(4β-8)epicatechin] | 84.2 | – | – | – | – |

Further lines, results first:

| IC50 ([1]; DiI-oxLDL 10 µg/mL) [nM] | concentration at 2 days [2] [ng/mL] | fluorescence of DiI-oxLDL in LOX-1-CHO cells (binding, microscopy) ([1]; 300 ng/mL, DiI-oxLDL 10 µg/mL, Fig. 4A) | IC50 ([1]; DiI-oxLDL 1 µg/mL, data not shown) [nM] | IC50 ([1]; DiI-oxLDL 3 µg/mL, data not shown) [nM] | SMILES |
| --- | --- | --- | --- | --- | --- |
| 47.3 | – | – | – | – | Oc1cc(O)c2c(c1)OC(c1ccc(O)c(O)c1)C(O)C2c1c(O)cc(O)c2c1OC(c1ccc(O)c(O)c1)C(O)C2c1c(O)cc(O)c2c1OC(c1ccc(O)c(O)c1)C(O)C2 (stereo not drawn) [epicatechin(4β-8)epicatechin(4β-8)catechin] |
| 58.8 | 4.9 ± 1.9 | significantly attenuated | 8.08 | 30 | Oc1cc(O)c2c(c1)O[C@H](c1ccc(O)c(O)c1)[C@H](O)[C@H]2c1c(O)cc(O)c2c1O[C@H](c1ccc(O)c(O)c1)[C@H](O)[C@H]2c1c(O)cc(O)c2c1O[C@H](c1ccc(O)c(O)c1)[C@H](O)C2 [procyanidin C1, epicatechin(4β-8)epicatechin(4β-8)epicatechin] |
| 54.2 | – | – | – | – | Oc1cc(O)c2c(c1)OC(c1ccc(O)c(O)c1)C(O)C2c1c(O)cc2c(c1O)C(c1c(O)cc(O)c3c1OC(c1ccc(O)c(O)c1)C(O)C3)C(O)C(c1ccc(O)c(O)c1)O2 (stereo not drawn) [epicatechin(4β-6)epicatechin(4β-8)catechin] |
